Among the data in patent publication US11267800B2, “Cyclohexyl acid triazole azines as LPA antagonists” (BRISTOL-MYERS SQUIBB COMPANY, priority 2017, dated 2022) are IC50 values, retold here.

Structures can show the parent of a compound that is named as a salt.

The target of the assay is T1, human LPA1 (Homo sapiens, UniProt Q92633).
T1 construct: expressed in transfected cells; host or cells: Chinese hamster ovary (CHO) cells
T1 sequence (Q92633 whole entry): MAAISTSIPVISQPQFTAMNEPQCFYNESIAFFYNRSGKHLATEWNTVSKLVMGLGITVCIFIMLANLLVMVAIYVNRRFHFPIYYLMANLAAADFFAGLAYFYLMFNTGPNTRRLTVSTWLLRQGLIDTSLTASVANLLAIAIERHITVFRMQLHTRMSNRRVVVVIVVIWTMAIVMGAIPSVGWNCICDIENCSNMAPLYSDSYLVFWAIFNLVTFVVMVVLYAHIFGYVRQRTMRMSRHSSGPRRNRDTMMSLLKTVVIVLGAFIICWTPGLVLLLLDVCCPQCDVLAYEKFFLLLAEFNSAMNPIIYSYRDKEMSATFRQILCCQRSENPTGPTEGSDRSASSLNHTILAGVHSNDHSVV
As to the kind of experiment: LPA1 functional antagonist assay (calcium flux). Type of assay: cell-based. As to conditions: CHO cells overexpressing human LPA1; inhibition of calcium flux induced by 10 nM LPA; read-out: hLPA1 IC50. In a few lines:
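IC50 values come from 4-parameter logistic fits and mark 50% block of the calcium flux evoked by 10 nM LPA. Human LPA1-overexpressing CHO cells were calcium-dye loaded at 37 °C, then given test compound (0.08 nM–5 μM, 0.5% DMSO, HEPES-buffered HBSS with 0.1% fatty-acid-free BSA) for 20 min at room temperature before agonist.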
For orientation: Calcium flux is commonly read through the fluorescence of an indicator in the cells.
As usually defined, the IC50 is the concentration that gives 50% inhibition. Turning to `Cc1nc(-c2nnn(C)c2CNc2ncc(Cl)c(C(C)C)n2)ccc1O[C@H]1CCC[C@H](C(=O)O)C1` [Example 158], the IC50 was 0.027 µM.
For `CCC(C)c1ccnc(NCc2c(-c3ccc(O[C@H]4CCC[C@H](C(=O)O)C4)c(C)n3)nnn2C)n1` (some centres unmarked) [Example 159], the IC50 is 0.021 µM.
`Cc1nc(-c2nnn(C)c2CNc2nccc(C3CC(F)(F)C3)n2)ccc1O[C@H]1CCC[C@H](C(=O)O)C1` [Example 160]: the IC50 came out at 0.017 µM.
As to `COC(=O)c1cc(C(C)(C)C)nc(NCc2c(-c3ccc(O[C@H]4CCC[C@H](C(=O)O)C4)c(C)n3)nnn2C)n1` [Example 161], the 50% inhibitory concentration (IC50) was 0.443 µM.
`Cc1nc(-c2nnn(C)c2CNc2nc(C(N)=O)cc(C(C)(C)C)n2)ccc1O[C@H]1CCC[C@H](C(=O)O)C1` [Example 162]: the half-maximal inhibitory concentration (IC50) worked out at 2.37 µM.
In the case of `COC(=O)c1cc(C2CCC2)nc(NCc2c(-c3ccc(O[C@H]4CCC[C@H](C(=O)O)C4)c(C)n3)nnn2C)n1` [Example 163], the IC50 amounted to 0.168 µM.
Take `Cc1nc(-c2nnn(C)c2CNc2nc(C#N)cc(C3CCC3)n2)ccc1O[C@H]1CCC[C@H](C(=O)O)C1` [Example 164]: the IC50 was 0.042 µM.
For `Cc1nc(-c2nnn(C)c2CNc2nc(C(N)=O)cc(C3CCC3)n2)ccc1O[C@H]1CCC[C@H](C(=O)O)C1` [Example 165] the value was 0.243 µM; for `Cc1nc(-c2nnn(C)c2CNc2nc(C#N)cc(C(C)(C)C)n2)ccc1O[C@H]1CCC[C@H](C(=O)O)C1` [Example 166], 0.18 µM.
For `Cc1nc(-c2nnn(C)c2CNc2nccc(C3(C)CC(F)(F)C3)n2)ccc1O[C@H]1CCC[C@H](C(=O)O)C1` [Example 167] the value was 0.055 µM; for `Cc1nc(-c2nnn(C)c2CNc2ncc(C#N)c(C3CCC3)n2)ccc1O[C@H]1CCC[C@H](C(=O)O)C1` [Example 168], 0.129 µM.
Turning to `COc1cc(C(C)(C)C)nc(NCc2c(-c3ccc(O[C@H]4CCC[C@H](C(=O)O)C4)c(C)n3)nnn2C)n1` [Example 169], the IC50 turned out to be 0.086 µM.
For `COc1cc(C2CCC2)nc(NCc2c(-c3ccc(O[C@H]4CCC[C@H](C(=O)O)C4)c(C)n3)nnn2C)n1` [Example 170] the value was 0.016 µM; for `Cc1nc(-c2nnn(C)c2CNc2ncc(C#N)c(C(C)(C)C)n2)ccc1O[C@H]1CCC[C@H](C(=O)O)C1` [Example 171], 0.177 µM.
Turning to `COc1cc(OC)nc(NCc2c(-c3ccc(O[C@H]4CCC[C@H](C(=O)O)C4)c(C)n3)nnn2C)n1` [Example 172], the IC50 worked out at 0.061 µM.
For `CCOc1cc(OCC)nc(NCc2c(-c3ccc(O[C@H]4CCC[C@H](C(=O)O)C4)c(C)n3)nnn2C)n1` [Example 173] the value was 0.127 µM; for `CCOc1cc(C)nc(NCc2c(-c3ccc(O[C@H]4CCC[C@H](C(=O)O)C4)c(C)n3)nnn2C)n1` [Example 174], 0.056 µM.
The value for `Cc1nc(-c2nnn(C)c2CNc2nc(OC(C)C)cc(OC(C)C)n2)ccc1O[C@H]1CCC[C@H](C(=O)O)C1` [Example 175] was 0.384 µM; that for `COc1cc(C(C)C)nc(NCc2c(-c3ccc(O[C@H]4CCC[C@H](C(=O)O)C4)c(C)n3)nnn2C)n1` [Example 176] was 0.027 µM.
As to `CCCOc1nc(NCc2c(-c3ccc(O[C@H]4CCC[C@H](C(=O)O)C4)c(C)n3)nnn2C)nc(OC)n1` [Example 177], the IC50 came out at 0.25 µM.
As for `Cc1nc(-c2nnn(C)c2CNc2nncc(C(C)(C)C)n2)ccc1O[C@H]1CCC[C@H](C(=O)O)C1` [Example 178], the IC50 came out at 0.498 µM.
As to `Cc1nc(-c2nnn(C)c2CNc2cc(OC3CCC3)ccn2)ccc1O[C@H]1CCC[C@H](C(=O)O)C1` [Example 180], the IC50 worked out at 0.246 µM.
The value for `Cc1nc(-c2nnn(C)c2CNc2ncnc(C(C)C)n2)ccc1O[C@H]1CCC[C@H](C(=O)O)C1` [Example 181] was 0.106 µM.
On to `Cc1nc(-c2nnn(C)c2CNc2ncnc(C(C)(C)C)n2)ccc1O[C@H]1CCC[C@H](C(=O)O)C1` [Example 182], for which the IC50 came to 0.693 µM.
As for `Cc1nc(-c2nnn(C)c2CNc2ncnc(C3CCC3)n2)ccc1O[C@H]1CCC[C@H](C(=O)O)C1` [Example 183], the IC50 amounted to 0.054 µM.
Take `Cc1nc(-c2nnn(C)c2CNc2ncnc(C3CCCC3)n2)ccc1O[C@H]1CCC[C@H](C(=O)O)C1` [Example 184]: the IC50 is 0.09 µM.
On to `Cc1nc(-c2nnn(C)c2CNc2ncnc(C3CCCCC3)n2)ccc1O[C@H]1CCC[C@H](C(=O)O)C1` [Example 185], for which the IC50 worked out at 0.288 µM.
For `Cc1nc(-c2nnn(C)c2CNc2nc(O)nc(C3CCCCC3)n2)ccc1O[C@H]1CCC[C@H](C(=O)O)C1` [Example 186] the value was 0.717 µM; for `Cc1nc(-c2nnn(C)c2CNc2ncnc(C3CC3)n2)ccc1O[C@H]1CCC[C@H](C(=O)O)C1` [Example 187, (1S,3S)-3-((6-(5-(((4-Cyclopropyl-1,3,5-triazin-2-yl)amino)methyl)-1-methyl-1H-1,2,3-triazol-4-yl)-2-methylpyridin-3-yl)oxy)cyclohexane-1-carboxylic acid, bis TFA Salt], 0.048 µM; for `Cc1nc(NCc2c(-c3ccc(O[C@H]4CCC[C@H](C(=O)O)C4)c(C)n3)nnn2C)nc(C2CC2)n1` [Example 188, (1S,3S)-3-((6-(5-(((4-Cyclopropyl-6-methyl-1,3,5-triazin-2-yl)amino)methyl)-1-methyl-1H-1,2,3-triazol-4-yl)-2-methylpyridin-3-yl)oxy)cyclohexane-1-carboxylic acid, bis TFA Salt], 0.138 µM.
Take `CCCCc1cnnc(NCc2c(-c3ccc(O[C@H]4CCC[C@H](C(=O)O)C4)c(C)n3)nnn2C)c1` [Example 189, (1S,3S)-3-((6-(5-(((5-Butylpyridazin-3-yl)amino)methyl)-1-methyl-1H-1,2,3-triazol-4-yl)-2-methylpyridin-3-yl)oxy)cyclohexane-1-carboxylic acid, bis TFA salt]: the IC50 worked out at 0.108 µM.
Regarding `Cc1nc(-c2nnn(C)c2CNc2cc(OC3CCC3)cnn2)ccc1O[C@H]1CCC[C@H](C(=O)O)C1` [Example 190, (1S,3S)-3-((6-(5-(((5-Cyclobutoxypyridazin-3-yl)amino)methyl)-1-methyl-1H-1,2,3-triazol-4-yl)-2-methylpyridin-3-yl)oxy)cyclohexane-1-carboxylic acid, bis TFA Salt], the IC50 came out at 0.187 µM.
As for `Cc1nc(-c2nnn(C)c2CNc2nnccc2OC2CCC2)ccc1O[C@H]1CCC[C@H](C(=O)O)C1` [Example 191, (1S,3S)-3-((6-(5-(((4-Cyclobutoxypyridazin-3-yl)amino)methyl)-1-methyl-1H-1,2,3-triazol-4-yl)-2-methylpyridin-3-yl)oxy)cyclohexane-1-carboxylic acid, bis TFA Salt], the IC50 was 0.103 µM.
With `Cc1nc(-c2nnn(C)c2CNc2nncc(-c3ccccc3)n2)ccc1O[C@H]1CCC[C@H](C(=O)O)C1` [Example 192, (1S,3S)-3-((2-Methyl-6-(1-methyl-5-(((5-phenyl-1,2,4-triazin-3-yl)amino)methyl)-1H-1,2,3-triazol-4-yl)pyridin-3-yl)oxy)cyclohexane-1-carboxylic acid, bis TFA Salt], the IC50 came to 0.053 µM.
As for `CCCCc1cnnc(NCc2c(-c3ccc(O[C@H]4CCC[C@H](C(=O)O)C4)c(C)n3)nnn2C)n1` [Example 193, (1S,3S)-3-((6-(5-(((5-Butyl-1,2,4-triazin-3-yl)amino)methyl)-1-methyl-1H-1,2,3-triazol-4-yl)-2-methylpyridin-3-yl)oxy)cyclohexane-1-carboxylic acid, bis TFA], the IC50 was 0.0068 µM.
